In one assay the target is IDH1 R132C (Homo sapiens, UniProt O75874, R132C). Nature of the assay: Effect on IDH1 R132C enzyme activity (NADPH consumption, diaphorase/resazurin fluorescence). The class given is biochemical. The note with it: 80 ng IDH1 R132C, α-KG 2 mM, NADPH 20 μM, 60 min preincubation. As for the experimental part:
(§1) Test method: The enzyme activity of IDH1 converting α-KG to 2HG was measured by the consumption of NADPH. After the enzymatic reaction finished, the amount of residual NADPH can be reflected by fluorescence signal generated by the addition of catalytically excessive diphhorase and reazurin.
50 μL mixed liquid of substrate α-KG and NADPH (final concentration of substrate α-KG was 2 mM, final concentration of NADPH was 20 μM), and the plate was incubated in dark for 60 min at room temperature. Detection reaction: 50 μL 1×detection buffer diluted 0.01 unit diabase and 30 μM resazurin were added into each well, and the mixture was incubated in dark at room temperature for 10 min. […] IC50 value was calculated by GraphPad Prism software.
A general note: Resazurin is reduced to fluorescent resorufin, in cell work by metabolically active cells.

The target in a further assay is IDH1 R132H (Homo sapiens, UniProt O75874, R132H). Nature of the assay: Effect on IDH1 R132H enzyme activity (NADPH consumption, diaphorase/resazurin fluorescence). It counts as biochemical. Particulars: 100 ng IDH1 R132H, α-KG 1 mM, NADPH 20 μM, 60 min preincubation. As to the method: as §1
IDH1 R132H, sequence (O75874 whole entry R132H): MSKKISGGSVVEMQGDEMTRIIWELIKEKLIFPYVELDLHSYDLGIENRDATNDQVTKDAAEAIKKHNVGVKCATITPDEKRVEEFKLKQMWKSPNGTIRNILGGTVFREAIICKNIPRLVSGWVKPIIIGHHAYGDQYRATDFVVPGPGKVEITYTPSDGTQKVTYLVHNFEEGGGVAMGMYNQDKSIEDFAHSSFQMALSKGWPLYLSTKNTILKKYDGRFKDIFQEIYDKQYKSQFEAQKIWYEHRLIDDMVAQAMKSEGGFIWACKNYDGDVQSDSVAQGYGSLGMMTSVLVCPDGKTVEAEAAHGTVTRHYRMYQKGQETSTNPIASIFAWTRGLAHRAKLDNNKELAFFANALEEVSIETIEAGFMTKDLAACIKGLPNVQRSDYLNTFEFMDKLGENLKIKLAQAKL
50 μL mixed liquid of substrate α-KG and NADPH (final concentration of substrate α-KG was 1 mM, final concentration of NADPH was 20 μM), and the mixture was incubated in dark for 60 min at room temperature. Detection reaction: 50 μL 1×detection buffer diluted 0.01 unit diabase and 30 μM resazurin were added into each well, and the mixture was incubated in dark at room temperature for 10 min. […] IC50 value was calculated by GraphPad Prism software.

The test system of assay [1] is 2HG of fibrosarcoma cell line HT1080 expressing IDH1 mutant IDH1-R132C. Nature of the assay: Inhibition of 2HG of fibrosarcoma cell line HT1080. Particulars: Homo sapiens, HT-1080; HT1080 cells, 48 hours with compound, 2HG in cell supernatant; read-out: HT1080 2HG inhibitory IC50. It counts as cell-based. As for the experimental part:
In this experiment, the inhibitory activity of the compound of the disclosure on the concentration level of 2HG of the fibrosarcoma cell line HT1080 was determined by the following method.
The cells were digested with trypsin and inoculated into a 24 well cell culture plate with a density of 10000 cells/well. The cells were cultured in a 5% CO2 cell incubator at 37° C. After overnight culture, the test compound was added to the cells. The final concentration of DMSO was 0.1%, and DMSO was used as control. The plate was then placed in a cell incubator and cultured for 48 hours.
Detection of 2HG: 2-HG was measured by PicoProbe™ D-2-Hydroxyglutarate (D2HG) Assay Kit of BioVision. 500 uL cell supernatant was taken from each well and added to a 10 kD centrifuge column, 12000 g, and centrifuged for 10 minutes to remove the effect of enzyme activity. […] IC50 value was calculated by GraphPad Prism software.
The inhibition rate of the sample was obtained by the following formula: […]
IC50 value was calculated by GraphPad Prism software.

This note sets out measurements from patent US20210253595A1, “2-Aminopyrimidine Derivative and Preparation Method and Use Thereof” (Etern Biopharma (Shanghai) Co., Ltd., priority 2018, published 2021).

The term IC50 denotes the midpoint of a concentration-inhibition curve.

IDH1 R132C, sequence (O75874 whole entry R132C): as the sequence (O75874 whole entry R132H) above, with H132C counted along it

In the case of `C[C@H](Nc1nccc(N2C(=O)OC[C@@H]2[C@H](C)F)n1)c1ncn2c1CCc1cc(F)ccc1-2` [Compound 11], the IC50 is below 50 nM against IDH1 R132C and 50 to 500 nM against IDH1 R132H.

`C[C@H](Nc1nccc(N2C(=O)OC[C@@H]2[C@H](C)F)n1)c1ncn2c1CSc1cc(C(F)(F)F)ccc1-2` [Compound 21, (R)-4-((S)-1-fluoroethyl)-3-(2-(((S)-1-(7-trifluoromethyl-4H-benzo[b]imidazo[1,5-d][1,4]thiazin-3-yl)ethyl)amino)pyrimidin-4-yl)oxazolidin-2-one]: the values for the 50% inhibitory concentration (IC50) (against IDH1 R132C; against IDH1 R132H; in assay [1]) were below 50 nM, below 50 nM and 17 nM, respectively.

Turning to `C[C@H](Nc1nccc(N2C(=O)OC[C@@H]2[C@H](C)F)n1)c1ncn2c1COc1cc(C#N)ccc1-2` [Compound 27, 3-((S)-1-((4-((R)-4-((S)-1-fluoroethyl)-2-oxyoxazolidin-3-yl)pyrimidin-2-yl)amino)ethyl)-4H-benzo[b]imidazo[1,5-d][1,4]oxazin-7-nitrile], the IC50 against IDH1 R132C and on IDH1 R132H was 50 to 500 nM throughout.

With `CC(C)[C@H]1COC(=O)N1c1ccnc(N[C@@H](C)c2ncn3c2CCc2cc(C(F)(F)F)ccc2-3)n1` [Compound 3, (S)-4-isopropyl-3-(2-(((S)-1-(7-trifluoromethyl-4,5-dihydroimidazo[1,5-a]quinolin-3-yl)ethyl)amino)pyrimidin-4-yl)oxazolidin-2-one], the values for the IC50 (at IDH1 R132C; against IDH1 R132H; in assay [1]) were below 50 nM, below 50 nM and 13 nM, respectively.

As to `COc1ccc2c(c1)OCc1c([C@H](C)Nc3nccc(N4C(=O)OC[C@@H]4[C@H](C)F)n3)ncn1-2` [Compound 25, (R)-4-((S)-1-fluoroethyl)-3-(2-(((S)-1-(7-methoxy-4H-benzo[b]imidazo[1,5-d][1,4]oxazin-3-yl)ethyl)amino)pyrimidin-4-yl)oxazolidin-2-one], the IC50 against IDH1 R132C and on IDH1 R132H was 50 to 500 nM each time.

For `Cc1ccc2c(c1)CCc1c([C@H](C)Nc3nccc(N4C(=O)OC[C@@H]4[C@H](C)F)n3)ncn1-2` [Compound 23, (R)-4-((S)-1-fluoroethyl)-3-(2-(((S)-1-(7-methyl-4,5-dihydroimidazo[1,5-a]quinolin-3-yl)ethyl)amino)pyrimidin-4-yl)oxazolidin-2-one], the 50% inhibitory concentration (IC50) is below 50 nM against IDH1 R132C, below 50 nM on IDH1 R132H and 22 nM in assay [1].

For the compound `C[C@H](Nc1nccc(N2C(=O)OC[C@@H]2[C@H](C)F)n1)c1ncn2c1COc1cc(C3CC3)ccc1-2` [Compound 26, (R)-3-(2-(((S)-1-(7-cyclopropyl-4H-benzo[b]imidazo[1,5-d][1,4]oxazin-3-yl)ethyl)amino)pyrimidin-4-yl)-4-((S)-1-fluoroethyl)oxazolidin-2-one], the values for the concentration for half-maximal inhibition (IC50) (against IDH1 R132C; on IDH1 R132H; in assay [1]) were below 50 nM, below 50 nM and 167 nM, respectively.

As to `CC1Oc2cc(C(F)(F)F)ccc2-n2cnc([C@H](C)Nc3nccc(N4C(=O)OC[C@@H]4[C@H](C)F)n3)c21` (stereo partly drawn) [Compound 15, (4R)-4-((S)-1-fluoroethyl)-3-(2-(((1S)-1-(4-methyl-7-trifluoromethyl-4H-benzo[b]imidazo[1,5-d][1,4]oxazin-3-yl)ethyl)amino)pyrimidin-4-yl)oxazolidin-2-one], the IC50 against IDH1 R132C and against IDH1 R132H was 50 to 500 nM each time.

Take `CC(C)[C@H]1COC(=O)N1c1ccnc(N[C@@H](C)c2ncn3c2CCCc2cc(C(F)(F)F)ccc2-3)n1` [Compound 9, (S)-4-isopropyl-3-(2-(((S)-1-(8-trifluoromethyl-5,6-dihydro-4H-benzo[f]imidazo[1,5-a]azepin-3-yl)ethyl)amino)pyrimidin-4-yl)oxazolidin-2-one]: the figures for the half-inhibitory concentration (IC50) (at IDH1 R132C; against IDH1 R132H; in assay [1]) were below 50 nM, 50 to 500 nM and 45 nM, respectively.

On to `C[C@H](Nc1nccc(N2C(=O)OC[C@@H]2[C@H](C)F)n1)c1ncn2c1CCc1cc(Cl)ccc1-2` [Compound 4, (R)-3-(2-(((S)-1-(7-chloro-4,5-dihydroimidazo[1,5-a]quinolin-3-yl)ethyl)amino)pyrimidin-4-yl)-4-((S)-1-fluoroethyl)oxazolidin-2-one], for which the half-maximal inhibitory concentration (IC50) is below 50 nM on IDH1 R132C, below 50 nM at IDH1 R132H and 54 nM in assay [1].

On to `C[C@H](Nc1nccc(N2C(=O)OC[C@@H]2[C@H](C)F)n1)c1ncn2c1COc1cc(F)ccc1-2` [Compound 24, (R)-3-(2-(((S)-1-(7-fluoro-4H-benzo[b]imidazo[1,5-d][1,4]oxazin-3-yl)ethyl)amino)pyrimidin-4-yl)-4-((S)-1-fluoroethyl)oxazolidin-2-one], for which the IC50 on IDH1 R132C and on IDH1 R132H was below 50 nM in each case.

In the case of `C[C@H](Nc1ncc(F)c(N2C(=O)OC[C@@H]2[C@H](C)F)n1)c1ncn2c1CCc1cc(C(F)(F)F)ccc1-2` [Compound 6, (R)-3-(5-fluoro-2-(((S)-1-(7-trifluoromethyl-4,5-dihydroimidazo[1,5-a]quinolin-3-yl)ethyl)amino)pyrimidin-4-yl)-4-((S)-1-fluoroethyl)oxazolidin-2-one], the half-maximal inhibitory concentration (IC50) against IDH1 R132C was below 50 nM; on IDH1 R132H it was below 50 nM; in assay [1] it was 20 nM.

`CC1Cc2c([C@H](C)Nc3nccc(N4C(=O)OC[C@@H]4[C@H](C)F)n3)ncn2-c2ccc(C(F)(F)F)cc21` (stereo partly drawn) [Compound 10, (4R)-4-((S)-1-fluoroethyl)-3-(2-(((1S)-1-(5-methyl-7-trifluoromethyl-4,5-dihydroimidazo[1,5-a]quinolin-3-yl)ethyl)amino)pyrimidin-4-yl)oxazolidin-2-one]: the IC50 on IDH1 R132C and on IDH1 R132H was 50 to 500 nM throughout.

For `C[C@H](Nc1nccc(N2C(=O)OC[C@@H]2[C@H](C)F)n1)c1ncn2c1CCc1cc(C(F)(F)F)ccc1-2` [Compound 5, (R)-4-((S)-1-fluoroethyl)-3-(2-(((S)-1-(7-trifluoromethyl-4,5-dihydroimidazo[1,5-a]quinolin-3-yl)ethyl)amino)pyrimidin-4-yl)oxazolidin-2-one], the IC50 against IDH1 R132C is below 50 nM; on IDH1 R132H it was below 50 nM; in assay [1], 16 nM.

As for `C[C@H](Nc1nccc(N2C(=O)OC[C@@H]2[C@H](C)F)n1)c1ncn2c1CCCc1cc(C(F)(F)F)ccc1-2` [Compound 13, (R)-4-((S)-1-fluoroethyl)-3-(2-(((S)-1-(8-trifluoromethyl-5,6-dihydro-4H-benzo[f]imidazo[1,5-a]azepin-3-yl)ethyl)amino)pyrimidin-4-yl)oxazolidin-2-one], the values for the IC50 (on IDH1 R132C; at IDH1 R132H; in assay [1]) were below 50 nM, below 50 nM and 35 nM, respectively.

As to `C[C@H](Nc1nccc(N2C(=O)OC[C@@H]2[C@H](C)F)n1)c1ncn2c1COc1cc(Cl)ccc1-2` [Compound 1, (R)-3-(2-((S)-1-(7-chloro-4H-benzo[b]imidazo[1,5-d][1,4]oxazin-3-yl)ethylamino)pyrimidin-4-yl)-4-((S)-1-fluoroethyl)oxazolidin-2-one], the IC50 was below 50 nM on IDH1 R132C, below 50 nM at IDH1 R132H and 60 nM in assay [1].

Regarding `N#Cc1ccnc(N2C(=O)CC[C@H]2C(=O)N(c2cncc(F)c2)[C@H](C(=O)NC2CC(F)(F)C2)c2ccccc2Cl)c1` [AG120, reference compound], in assay [1], the IC50 turned out to be 25 nM.

On to `C[C@H](Nc1nccc(N2CC3(CC3)OC2=O)n1)c1ncn2c1CCc1cc(C(F)(F)F)ccc1-2` [Compound 19, (S)-6-(2-((1-(7-trifluoromethyl-4,5-dihydroimidazo[1,5-a]quinolin-3-yl)ethyl)amino)pyrimidin-4-yl)-4-oxa-6-azaspiro[2.4]heptan-5-one], for which the IC50 against IDH1 R132C and against IDH1 R132H was above 500 nM each time.

Consider `CC1Cc2cc(C(F)(F)F)ccc2-n2cnc([C@H](C)Nc3nccc(N4C(=O)OC[C@@H]4[C@H](C)F)n3)c21` (stereo partly drawn) [Compound 14, (4R)-4-((S)-1-fluoroethyl)-3-(2-(((1S)-1-(4-methyl-7-trifluoromethyl-4,5-dihydroimidazo[1,5-a]quinolin-3-yl)ethyl)amino)pyrimidin-4-yl)oxazolidin-2-one], for which the IC50 at IDH1 R132C and against IDH1 R132H was 50 to 500 nM in each case.

On to `C[C@H](Nc1nccc(N2C(=O)OC[C@@H]2[C@H](C)F)n1)c1ncn2c1CCc1c(Cl)cccc1-2` [Compound 29, (R)-3-(2-(((S)-1-(6-chloro-4,5-dihydroimidazo[1,5-a]quinolin-3-yl)ethyl)amino)pyrimidin-4-yl)-4-((S)-1-fluoroethyl)oxazolidin-2-one], for which the values for the IC50 at IDH1 R132C and at IDH1 R132H were 50 to 500 nM and below 50 nM, respectively.
